Where no end group is shown, it is not given here.
Columns and labels:
murine spleen cells = assay: Th1/Th2 cytokine profiling assay (Ovalbumin-restimulated spleen cells, CBA Kit); assay type: cell-based, Balb/c mice; settings: 10 micrograms per ml, Ovalbumin restimulation, 72 hours
Text: The Balb/c mice (originated in 1923, it is a popular strain and is used in many different research disciplines. Also classified as an inbred from the production of 20 or more successive brother-sister matings, the Balb/c mouse is albino and small in size) were immunized on Days 1, 15, and 29 with Ovalbumin (Ovalbumin is the main protein found in egg white, commonly used to stimulate an immunological reaction in test animals) in PBS (5 micrograms/injection). On day 50, spleens of the mice were harvested (3 weeks after last boost with Ovalbumin), Cells were cultured (2×10^5/well in triplicate) and incubated with culture medium or test peptides—10 micrograms per ml—for 30 min. Thereafter, additional Ovalbumin was added to the cells at 10 micrograms/ml for in vitro restimulation of the cells. 72 hours later, cell supernatants were harvested and assayed using the Becton Dickinson Mouse Th1/Th2 Cytokine CBA Kit. This kit can be used to measure Interleukin-2 (IL-2), Interleukin-4 (IL-4), Interleukin-5 (IL-5), Interferon-γ (IFN-γ), and Tumor Necrosis Factor-α (TNF-α) protein levels in a single sample. The kit performance has been optimized for analysis of physiologically relevant concentrations (pg/ml levels) of specific cytokine proteins in tissue culture supernatants and serum samples.

HUVEC = assay: Endothelial tube formation assay; assay type: cell-based, human; settings: 10 micrograms per ml, 20 hours
Text: Positive control was vehicle only.

[1] = system: Primary Human endothelial cells (HUVEC); assay: Endothelial cell migration assay; assay type: cell-based; settings: 10 micrograms per ml, 22 hours
Experimental: Thereafter, designated concentration of testing peptides—10 micrograms per ml—was added in duplicate wells.

HCMV strain AD169 = assay: HCMV plaque formation assay in MRC-5 cells; assay type: cell-based; settings: for inhibition of HCMV plaque formation as compared to the virus control experiment: 10 micrograms per ml, 7-10 days
Text: Ganciclovir was used as positive control.

[2] = system: hepatitis B virus (HBV) ayw strain; assay: HBV assay in HepG2-2.2.15 cells (TaqMan PCR of secreted HBV DNA); assay type: cell-based; settings: 10 micrograms per ml, six days, HBV DNA in supernatant
Human A549 cells = assay: Apoptosis induction assay (Annexin-5); assay type: cell-based; settings: 10 micrograms per ml, 24 hours
Experimental: Human A549 cells (carcinomic human alveolar basal epithelial cells) were utilized in the experiments employing the Annexin-5 apoptosis assay. […] Test peptides—10 micrograms per ml—were exposed for 24 hours to the A549 cells before they were analyzed for signs of apoptosis.

HIV-1IIIB = assay: HIV-1 antiviral assay in CEM-SS cells (MTS readout)

Row | Molecule | change of the production of IFN-gamma (murine spleen cells) | change of the production of IL-5 (murine spleen cells) | production of TNF-alpha, induced by (murine spleen cells) [%] | inhibition of the tube formation of human endothelial cells (HUVEC) [%] | inhibition of the migration of human endothelial cells [1] [%] | inhibition of HCMV plaque formation as compared to the virus control experiment (HCMV strain AD169) [%] | inhibition of HBV replication as compared to the virus control infection [2] [%] | induction of apoptosis on human lung cells (Human A549 cells) | antiviral activity of positive control compounds (HIV-1) (HIV-1IIIB) | also measured
1 | Tyr-Gly-Gln-Val-Pro-Met-Cys-Asp-Ala-Gly-Glu-Gln-Cys-Ala-Val-OH (YGQVPMCDAGEQCAV-OH; cysteine pairing not given here) [Peptide 1] | did not significantly change | did not significantly change | 95.0 | 16 | 15 | 0.7 | 33.6 | did not show any significant induction |  | production of IL-2, induced by (murine spleen cells): 147.7%; production of IL-4, induced by (murine spleen cells): 545.4%
2 | CC(C)(C)NC(=O)[C@@H]1CN(Cc2cccnc2)CCN1C[C@@H](O)C[C@@H](Cc1ccccc1)C(=O)N[C@H]1c2ccccc2C[C@H]1O [indinavir] |  |  |  |  |  |  |  |  | expected levels of antiviral activity | 
3 | Cc1cn([C@H]2C[C@H](N=[N+]=[N-])[C@@H](CO)O2)c(=O)[nH]c1=O [AZT] |  |  |  |  |  |  |  |  | expected levels of antiviral activity | 
4 | Val-Pro-Ile-Tyr-Glu-Lys-Lys-Tyr-Gly-Gln-Val-Pro-Met-Cys-Asp-Ala-Gly-Glu-Gln-Cys-Ala-Val-Arg-Lys-Gly-Ala-Arg-Ile-Gly-Lys-Leu-Cys-Asp-Cys-Pro-Arg-Gly-Thr-Ser-Cys-Asn-Ser-Phe-Leu-Leu-Lys-Cys-Leu-OH (VPIYEKKYGQVPMCDAGEQCAVRKGARIGKLCDCPRGTSCNSFLLKCL-OH; cysteine pairing not given here) [Peptide 2] | did not significantly change | did not significantly change | 27.5 | 12 | 22 | 6.6 | 45.0 | 17.8% |  | production of IL-2, decreased by (murine spleen cells): 61.5%; production of IL-4, decreased by (murine spleen cells): 100%
5 | Nc1nc(O)c2ncn(COC(CO)CO)c2n1 [Ganciclovir, reference compound] |  |  |  |  |  |  |  |  |  | antiviral activity of positive control compound (HCMV) (HCMV strain AD169; positive control): expected levels of antiviral activity

Reference: patent US20100184679A1, “USE OF A COMBINATION OF CART PEPTIDES AS A THERAPEUTIC AGENT” (priority 2007, published 2010)
